The test system of one experiment is tau phosphorylation. Nature of the experiment: Inhibitory activity on tau phosphorylation in vivo (pS396 Western blot of cortex). More on the design: species or system male CD-1 mice. The following applies: 10 mg/kg p.o., cortex removed after 1 hour, pS396 antibody; ** means statistically significant. The method, then: Experiment 7 : Inhibitory activity on tau phosphorylation in vivo
Test compound was administrated to male CD-1 mice of 5-6 weeks weighing 25-35 g (Charles River Japan, inc.) at 10 mg/kg p.o. (0.5% polyethylene glycol sorbitan monolaurate 80 (Tween80)/water suspension) and after 1 hour, mice were decapitated and cortex was promptly removed, followed by being frozen in liquid nitrogen. […] Protein concentrations were determined using DC protein assay kit (BIO-RAD). Supernatants were diluted with sample buffer (62.5 mM Tris-HCl, 25% glycerol, 2% SDS, 0.01% Bromophenol Blue, pH 6.8) to adjust the protein concentrations around […] and then boiled for 5 minutes. Samples (10 µ g) were separated on 10% sodium dodecyl sulfate-polyacrylamide electrophoresis (SDS-PAGE) mini slab gels and transferred onto polyvinylidene difluoride (PVDF) membranes. Membranes were incubated with phosphate buffered saline (PBS) containing 5% non-fat milk for 1 hour at room temperature and then probed with pS396 anti-body (BIOSOURCE) over night at 4 °C. Anti-rabbit IgG horseradish peroxidase (HRP) conjugated antibody (Promega) was used as secondary antibody. Membranes were visualized by Enhanced ChemiLuminescence (ECL) kit (Amersham Bioscience) and detected by LAS 1000 (Fuji Photo Film).
In general terms: In western blotting, separated proteins are transferred to a membrane and probed.

The subject of a further experiment is scopolamine-treated mice. The experiment can be described thus: Object recognition (OR) test of episodic memory in scopolamine-treated mice. The conditions noted are these: for recognition index (RI): scopolamine 1 mg/kg 30 minutes before acquisition, 3 hours inter-trial interval.
In another experiment the test system is normal mice. The experiment can be described thus: Object recognition (OR) test of episodic memory in normal mice. In kind it is in vivo. The following applies: for minimal effective dose: Mus musculus, po.

Where two headings read alike, the source gives them in different places.

As to `Cn1c(N2CCOC(c3ccc(-n4cccn4)cc3)C2)nc(-c2ccncn2)cc1=O` (centres unmarked) [compound 5, 1-Methyl-2-[2-(4-pyrazol-1-yl-phenyl)-morpholin-4-yl]-1H-[4,4']bipyrimidinyl-6-one], in the experiment with tau phosphorylation, the “in vivo 10 mg/kg, % phosphorylation against vehicle” value (from here on “in vivo 10 mg/kg, % phosphorylation”) is given as 53.35** %.

For `Cn1c(N2CCOC(c3noc(-c4ccccc4)n3)C2)nc(-c2ccncn2)cc1=O` (centres unmarked) [compound 2, 1-Methyl-2-[2-(5-phenyl-[1,2,4]oxadiazol-3-yl)-morpholin-4-yl]-1H-[4,4']bipyrimidinyl-6-one], the “in vivo 10 mg/kg, % phosphorylation” value in the experiment on tau phosphorylation stood at 79.21%.

Take `Cc1nc(-c2ccc([C@H]3CN(c4nc(-c5ccncn5)cc(=O)n4C)CCO3)cc2)no1` [Compound of the present invention]: the minimal effective dose with scopolamine-treated mice (Mus musculus, po, read-out: Minimal Effective Dose, prevention of episodic memory deficits) is 10 mg/kg; in the experiment with normal mice (normal mice, summary, read-out: minimal effective dose, increases episodic memory and consolidates episodic memory trace), 10 mg/kg; in the experiment with normal mice (p.o. 1 hour before acquisition and retention sessions, 24 hours inter-trial interval, read-out: dose from which memory performance increased significantly), at least 10 mg/kg; in the experiment on normal mice (p.o. once immediately after the acquisition phase, read-out: minimal effective dose, consolidation of episodic memory), 10 mg/kg. Moreover, the “recognition index (RI)” value in the experiment with scopolamine-treated mice (10 mg/kg p.o. 1 hour before acquisition) amounted to 52.7%; in the experiment on scopolamine-treated mice (30 mg/kg p.o. 1 hour before acquisition) it was 60.4%; with normal mice (1 mg/kg p.o. 1 hour before acquisition and retention sessions, 24 hours inter-trial interval), 50.3%; in the experiment with normal mice (3 mg/kg p.o. 1 hour before acquisition and retention sessions, 24 hours inter-trial interval), 52.6%; in the experiment on normal mice (3 mg/kg p.o. once immediately after the acquisition phase, 24 hours inter-trial interval), 54.6%; in the experiment on normal mice (10 mg/kg p.o. 1 hour before acquisition and retention sessions, 24 hours inter-trial interval), 60.4%. Moreover, the “recognition index (RI)” value in the experiment with normal mice (10 mg/kg p.o. once immediately after the acquisition phase, 24 hours inter-trial interval) is listed as 58.6%; with normal mice (30 mg/kg p.o. 1 hour before acquisition and retention sessions, 24 hours inter-trial interval), 62.9%; in the experiment on normal mice (30 mg/kg p.o. once immediately after the acquisition phase, 24 hours inter-trial interval), 60.0%; in the experiment on normal mice (normal mice of the scopolamine experiment, 10 mg/kg p.o. 1 hour before acquisition, 3 hours inter-trial interval), 61.7%; with normal mice (normal mice of the scopolamine experiment, 30 mg/kg p.o. 1 hour before acquisition, 3 hours inter-trial interval), 59.7%. Further, the “effect on episodic memory deficits induced by scopolamine” value in the experiment on scopolamine-treated mice (single oral administration 3mg/kg) is reported as “ineffective”; with scopolamine-treated mice (single oral administration 10 mg/kg, 30 minutes before scopolamine, 1 hour before acquisition), “totally reversed”. For the same molecule, the “in vivo 10 mg/kg, % phosphorylation” value with tau phosphorylation is given as 58.14** %.

Turning to `Cn1c(N2CCOC(c3ccc(-c4ccoc4)cc3)C2)nc(-c2ccncn2)cc1=O` (centres unmarked) [compound 3, 2-[2-(4-Furan-3-yl-phenyl)-morpholin-4-yl]-1-methyl-1H-[4,4']bipyrimidinyl-6-one], the “in vivo 10 mg/kg, % phosphorylation” value in the experiment with tau phosphorylation came to 71.44%.

With `Cn1ccnc1-c1ccc(C2CN(c3nc(-c4ccncn4)cc(=O)n3C)CCO2)cc1` (centres unmarked) [compound 4, 1-Methyl-2-{2-[4-(1-methyl-1H-imidazol-2-yl)-phenyl]-morpholin-4-yl}-1H-[4,4']bipyrimidinyl-6-one], the “in vivo 10 mg/kg, % phosphorylation” value in the experiment with tau phosphorylation was found to be 71.21%.

For `Cn1c(N2CCOC(c3nc(-c4ccccc4)no3)C2)nc(-c2ccncn2)cc1=O` (centres unmarked) [compound 1], the “in vivo 10 mg/kg, % phosphorylation” value with tau phosphorylation is recorded as 92.12%.

The values are drawn from patent EP2078717A1, “6-Pyrimidinyl-pyrimid-2-one derivative” (sanofi-aventis, priority 2008, dated 2009).
